# From patent US20240216900A1, “SABRE CATALYSTS CONTAINING FLUORINATED CARBON CHAINS FOR DELIVERY OF METAL-FREE MRI CONTRAST AGENTS” (The U.S.A., as represented by the Secretary, Department of …, priority 2022, published 2024)
# Tests used:
# [1] = cited from earlier work
# [2] = Relaxation dynamics of hyperpolarized [1-13C]pyruvate (build-up time Tb and T1)
# Excerpt: In addition, the relaxation dynamics of the [1-^13C]pyruvate were also studied.
# In addition, relaxation dynamics at earth field and 1.8 T are about the same as a non-fluorinated SABRE catalyst T1=28.9±1.6 s and 66.5±7 s, respectively.
# [3] = as above; remark: listed apart in the source
# [4] = Example 7: Example 4 catalyst, DMSO, methanol
# [5] = Example 25: Example 4 catalyst, DMSO, NFBME/MeOD fluorous mixture
# [6] = Example 31: Example 4 catalyst, DMSO, CD3OD/Novec 7100
# [7] = Example 32: Example 4 catalyst, PTMSO, CD3OD/Novec 7100
Compound,H2 solubility in water [1],"T1 at 1.8T [2, 4] [s]","T1 at earth field [2, 4] [s]","T1 at 1.8T [2, 5] [s]","T1 at earth field [2, 5] [s]","T1 at 1.8T [2, 6] [s]","T1 at earth field [2, 6] [s]","T1 at 1.8T [2, 7] [s]","T1 at earth field [2, 7] [s]","T1 (relaxation at 0.4 μT) [3, 4] [s]","T1 (relaxation at 0.4 μT) [3, 5] [s]","T1 (relaxation at 0.4 μT) [3, 6] [s]","T1 (relaxation at 0.4 μT) [3, 7] [s]"
[HH] [Example H2],about 1.6 mg/L,–,–,–,–,–,–,–,–,–,–,–,–
"CC(=O)C(=O)O [[1-^13C]pyruvate, sodium [1-^13C]pyruvate]",–,66.5 ± 7,28.9 ± 1.6,16.0 ± 1.4,9.0 ± 1.9,66.5 ± 3.6,9.3 ± 0.8,59.0 ± 8.1,14.9 ± 1.0,16.1 ± 0.9,11.3 ± 1.3,12.6 ± 1.1,18.0 ± 0.8
